Test results taken from patent publication US9057727B2, “Screening methods using G-protein coupled receptors and related compositions” (The General Hospital Corporation, priority 2007, dated 2015).
Like-named read-outs stand apart in the source and are kept apart here. Peptide text beside a SMILES is read from it.

What was measured:
[1] = Plasma cAMP in C57BL/6 mice after intravenous injection; assay type: in vivo; details: i.v. (Example 4)
Procedure: Blood was withdrawn 10 minutes after injection, and the plasma level of cAMP was measured by RIA.
Blood was withdrawn 10 minutes after injection and plasma level of cAMP was measured by RIA.
In the cAMP experiment (FIG. 29A), blood was withdrawn 10 minutes after injection and plasma level of cAMP was measured by RIA.

[2] = target: T1, human PTHR, G protein-uncoupled conformation (R^0) (Homo sapiens, UniProt Q03431); assay: Competition binding to R0 conformation of hPTHR (COS-7 membranes, GTPγS, 125I-PTH(1-34) tracer); details: Table 2
T1 construct: expressed in transfected cells; host or cells: COS-7, transient (Fugene-6)
T1 sequence (Q03431 27-593): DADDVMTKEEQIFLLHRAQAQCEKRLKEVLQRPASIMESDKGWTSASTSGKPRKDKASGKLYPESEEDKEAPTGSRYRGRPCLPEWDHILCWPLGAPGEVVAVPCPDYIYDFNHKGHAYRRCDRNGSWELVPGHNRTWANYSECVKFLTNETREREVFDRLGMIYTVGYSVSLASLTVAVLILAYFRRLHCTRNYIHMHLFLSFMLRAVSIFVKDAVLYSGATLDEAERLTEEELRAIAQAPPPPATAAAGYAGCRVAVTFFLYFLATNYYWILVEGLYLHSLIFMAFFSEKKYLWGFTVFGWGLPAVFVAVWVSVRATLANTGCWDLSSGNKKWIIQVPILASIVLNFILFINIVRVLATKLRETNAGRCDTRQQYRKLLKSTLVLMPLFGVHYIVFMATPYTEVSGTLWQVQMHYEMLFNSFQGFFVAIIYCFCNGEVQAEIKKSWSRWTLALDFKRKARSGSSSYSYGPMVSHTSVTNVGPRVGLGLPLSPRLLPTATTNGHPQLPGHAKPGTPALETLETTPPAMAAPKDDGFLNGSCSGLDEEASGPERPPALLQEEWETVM
Method in brief: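 Membranes from hPTHR-transfected COS-7 cells (20-100 μg/mL protein) incubated 90 min with radioligand (~150,000 cpm/ml) and unlabeled ligands, then filtered. Specific binding expressed as % of binding without competitor.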

MC3T3-E1 cells = assay: cAMP in MC3T3-E1 cells, dose-response; assay type: cell-based
Procedure: In the 1-30 scaffold, Gly, Ser, Leu, Asn, Gln, Trp, Glu, and Lys were substituted at position 29; Gly, Ser, Leu, Asn, Asp, Trp, and Lys were substituted at position 30; and Ser, Leu, Asn, Val, Trp, Glu, and Lys were substituted at position 31. […] These peptides were tested for cAMP activity in MC3T3-E1 cells.

[3] = target: T2, human PTHR, G protein-coupled conformation (RG) (Homo sapiens, UniProt Q03431); assay: Competition binding to RG conformation of hPTHR (COS-7 membranes, GαsND, 125I-[Aib1,3,M]PTH(1-15) tracer)
T2 construct: expressed in transfected cells; host or cells: COS-7, transient (Fugene-6); membranes
T2 sequence (Q03431 27-593): T1 sequence (Q03431 27-593)

SaOS cells = assay: cAMP production in SaOS cells, dose-response; assay type: cell-based
[4] = test system: LLCPK1-B64 cells or SaOS-2 cells; assay: cAMP screen of substituted PTHrP(1-28) analogs (% parent); assay type: cell-based; details: parent PTHrP(1-28)NH
Method in brief: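 LLCPK1-B64 or SaOS-2 cells exposed to peptide analogs at 3×10^−9M with IBMX for 30 minutes at room temperature, then cAMP measured. Each analog's response expressed as percentage of that for parent PTHrP(1-28).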

human PTH1 receptor = target: T3, human PTH1 receptor (Homo sapiens, UniProt Q03431); assay: cAMP signaling dose-response in HKRK-B7 cells; assay type: cell-based; details: 15 min, 37° C., IBMX
T3 construct: expressed in transfected cells
T3 sequence (Q03431 27-593): T1 sequence (Q03431 27-593)
Procedure: In the cAMP experiments of FIG. 14, HKRK-B7 were seeded in 96 well plates at 1×10^5 cells/well and incubated overnight. On the following day, the cells were washed once with […] of binding buffer (50 mM Tris-HCl, pH 7.7, 100 mM NaCl, 5 mM KCl, 2 mM CaCl2, 5% heat-inactivated horse serum, 0.5% heat-inactivated fetal bovine serum), followed by addition of 100 μl cAMP assay buffer (DMEM, 2 mM IBMX, 1 mg/ml bovine serum albumin, 35 mM Hepes-NaOH, pH 7.4) on ice. […] After removing the medium, the plates were placed on powdered dry ice to freeze the cells and then removed from dry ice. The cells were thawed with 50 μl of 50 mM HCl and frozen again on dry ice. The level of intracellular cAMP was measured with a commercially available cAMP EIA kit (Biotrack cAMP EIA system, GE Healthcare).
HKRK-B, which are LLC-PK1 cells over-expressing human PTH1 receptor at levels of 9.5×10^5 per cell were used in the cAMP signaling assay. The cells were cultured at 37° C. in a humidified atmosphere containing 5% CO2 in Dulbecco's modified Eagle's medium (DMEM), supplemented with 10% fetal bovine serum (Hyclone), 100 units/ml penicillin G, and 100 μg/ml streptomycin sulfate (Invitrogen Corp). […] All peptides were dissolved at 1 mM in 10 mM acetic acid, and stored at −80° C. The cAMP stimulation assay was performed as described above for HKRK-B7 cells. […] Cells were treated for 15 minutes at 37° C. with varying concentrations of ligands in the presence of IBMX.

SMILES: CC[C@H](C)[C@H](NC(=O)[C@H](CC(C)C)NC(=O)[C@H](CCCCN)NC(=O)[C@H](CC(C)C)NC(=O)[C@H](CC(C)C)NC(=O)[C@H](Cc1ccccc1)NC(=O)[C@H](C)NC(=O)[C@H](CCCNC(=N)N)NC(=O)[C@H](CCCNC(=N)N)NC(=O)[C@H](CCCNC(=N)N)NC(=O)[C@H](C)NC(=O)[C@H](CC(=O)O)NC(=O)[C@H](CCC(N)=O)NC(=O)[C@@H](NC(=O)[C@H](CO)NC(=O)[C@H](CCCCN)NC(=O)CNC(=O)[C@H](CCCCN)NC(=O)[C@H](CC(=O)O)NC(=O)[C@H](Cc1c[nH]cn1)NC(=O)[C@H](CC(C)C)NC(=O)[C@H](CC(C)C)NC(=O)[C@H](CCC(N)=O)NC(=O)[C@H](Cc1c[nH]cn1)NC(=O)[C@H](CCC(=O)O)NC(=O)[C@H](CO)NC(=O)[C@@H](NC(=O)[C@H](C)N)C(C)C)[C@@H](C)CC)C(N)=O [A18, 22, L25, K26-PTHrP(1-28)NH, A18,22,L25,K26-PTHrP(1-28)] (H-AVSEHQLLHDKGKSIQDARRRAFLLKLI-NH2; N-terminus assumed)
- plasma cAMP 10 minutes after injection, in words [1]: Marked enhancements
- R0/RG selectivity ([2]; hPTHR): 6971
- IC50 ([2]; read-out: R^0 binding affinity hPTHR IC50): 310 nM
- EC50 (MC3T3-E1 cells; Table 2, read-out: MC3T3-E1 cAMP EC50): 0.054 nM
- EC50 (MC3T3-E1 cells; Table 3, read-out: dose-response cAMP in MC3T3-E1 (EC50)): 0.054 nM
- cAMP potency and RG binding affinity compared with PTH(1-34), in words [3]: cAMP potency and RG binding affinity that is greater than that of PTH(1-34)
- IC50 ([3]; Table 2, read-out: RG binding affinity hPTHR IC50): 0.04 nM
- cAMP-inducing activity compared with parent, in words (SaOS cells): Marked enhancements of cAMP-inducing activity
- EC50 (SaOS cells; Table 2, read-out: SaOS camp EC50): 0.002 nM
- EC50 (SaOS cells; Table 3, read-out: dose-response cAMP in SaOS (EC50)): 0.002 nM
- screen cAMP (% parent) [4]: 305 % parent
- cAMP in HKRK-B7 cells Max (human PTH1 receptor): 56.4 pm/well
